This passage reports MIC results from DBAASP.

Converted amounts (≈) assume the structure as drawn.

Common to all, as to assay: ≥ marks a high value that may be exact or a test limit, other limits are often not marked, values filed in µg/mL are converted to µM
Test [1] relates to Staphylococcus warneri.
The subject of test [2] is Bacillus subtilis.
The test system of test [3] is Staphylococcus aureus.
For test [4], the system named is Staphylococcus saprophyticus.
Test [5] relates to Morganella morganii.
Test [6] has as its system Candida albicans.
The subject of test [7] is Escherichia coli DH5alpha.
Test [8] relates to Enterococcus faecium.
For test [9], the system named is Salmonella enterica.
In test [10] the test system is Escherichia coli K-12 D31.
Test [11] relates to Saccharomyces cerevisiae.
The subject of test [12] is Staphylococcus haemolyticus.
Test [13] concerns Trichophyton rubrum.
For test [14], the system named is Cryptococcus neoformans.
Test [15] relates to Aeromonas caviae.
Test [16] has as its system Trichophyton simii.
In test [17] the test system is Escherichia coli.
Test [18] has as its system Enterococcus faecalis.
Test [19] concerns Nocardia brasiliensis.
Test [20] deals with Aspergillus fumigatus.
For test [21], the system named is Aspergillus niger.
Test [22] relates to Microsporum canis.
Test [23] relates to Vibrio alginolyticus.
Test [24] deals with Pseudomonas aeruginosa ATCC 19660.
In test [25] the test system is Helicobacter pylori.
The test system of test [26] is Vibrio vulnificus 204.
The test system of test [27] is Streptococcus agalactiae BCRC 10787.
Test [28] deals with Streptococcus agalactiae 819.
Test [29] has as its system Helicobacter pylori ATCC 43504.
Test [30] concerns Enterococcus faecalis BCRC 10066.
The subject of test [31] is Helicobacter pylori ATCC 43629.
The subject of test [32] is Aeromonas hydrophila BCRC 13018.
The subject of test [33] is Helicobacter pylori ATCC 700392.
Test [34] concerns Stenotrophomonas maltophilia B32/4.
The test system of test [35] is Acinetobacter baumannii NM8.
Test [36] concerns Staphylococcus epidermidis RP62A.
The subject of test [37] is Candida albicans ATCC 90028.
In test [38] the test system is Pseudomonas aeruginosa ATCC 27853.
In test [39] the test system is Staphylococcus epidermidis RP62A/1.
Test [40] has as its system Escherichia coli ATCC 25726.
The subject of test [41] is Staphylococcus aureus ATCC 25923.
The subject of test [42] is Klebsiella pneumoniae ATCC 700603.

Turning to `CC[C@H](C)[C@H](NC(=O)[C@H](CC(C)C)NC(=O)[C@H](CCCCN)NC(=O)CNC(=O)[C@H](C)NC(=O)[C@H](Cc1cnc[nH]1)NC(=O)[C@@H](NC(=O)[C@H](CC(C)C)NC(=O)CNC(=O)[C@H](Cc1cnc[nH]1)NC(=O)[C@H](Cc1ccccc1)NC(=O)[C@@H](NC(=O)[C@H](CC(C)C)NC(=O)CNC(=O)[C@H](CC(C)C)NC(=O)[C@@H](N)Cc1ccccc1)[C@@H](C)CC)C(C)C)C(=O)N[C@@H](Cc1cnc[nH]1)C(=O)NCC(=O)N[C@@H](CC(C)C)C(=O)N[C@H](C(=O)N[C@@H](Cc1cnc[nH]1)C(=O)N[C@@H](CCCN=C(N)N)C(=O)N[C@@H](CC(N)=O)C(=O)N[C@@H](CCCN=C(N)N)C(=O)NCC(=O)O)[C@@H](C)CC` [FLGLIFHGLVHAGKLIHGLIHRNRG], the MIC (as a rule, the lowest concentration found to suppress growth) in [1] is 15 µM (≈ 41.6 µg/mL); in [2], at least 48 µM; in test [3] it was 1.5 µM (≈ 4.16 µg/mL); in test [4], 7.5 µM (≈ 20.8 µg/mL); in test [5] it was 12 µM (≈ 33.3 µg/mL); in test [6], 96 µM (≈ 267 µg/mL). The MIC in test [7] is 7.5 µM (≈ 20.8 µg/mL); in test [8] it was 15 µM (≈ 41.6 µg/mL); in test [9], 6 µM (≈ 16.7 µg/mL); in test [10], 3 µM (≈ 8.33 µg/mL); in [11], at least 384 µM; in test [12], 7.5 µM (≈ 20.8 µg/mL).

Regarding `CC[C@H](C)[C@H](NC(=O)[C@H](Cc1ccc(O)cc1)NC(=O)[C@H](Cc1cnc[nH]1)NC(=O)[C@H](CCCN=C(N)N)NC(=O)[C@H](CC(C)C)NC(=O)[C@H](C)NC(=O)[C@@H](NC(=O)[C@H](CC(C)C)NC(=O)[C@H](Cc1ccc(O)cc1)NC(=O)[C@H](CCCCN)NC(=O)[C@H](CC(N)=O)NC(=O)[C@H](CCSC)NC(=O)[C@H](CCC(=O)O)NC(=O)[C@H](CCC(=O)O)NC(=O)[C@@H]1CCCN1)[C@@H](C)O)C(=O)N[C@@H](CC(N)=O)C(=O)N[C@@H](CC(C)C)C(=O)N[C@H](C(=O)N[C@H](C(=O)N[C@@H](CCCN=C(N)N)C(=O)N[C@@H](CCC(N)=O)C(=O)N[C@@H](CCCN=C(N)N)C(=O)N[C@@H](Cc1ccc(O)cc1)C(N)=O)[C@@H](C)O)C(C)C` [PEEMNKYLTALRHYINLVTRQRY], the MIC stood at 5.16 µM (≈ 15 µg/mL) in test [13]; 6.87 µM (≈ 20 µg/mL) in test [14]; 13.7 µM (≈ 40 µg/mL) in [15]; 3.44 µM (≈ 10 µg/mL) in test [16]; 5.16 µM (≈ 15 µg/mL) in test [6]; 3.44 µM (≈ 10 µg/mL) in [17]. For the same compound, the MIC in test [18] was 3.44 µM (≈ 10 µg/mL); in test [19], 6.87 µM (≈ 20 µg/mL); in [20] it was 27.5 µM (≈ 80 µg/mL); in test [21] it was at least 34.4 µM; in test [22], 3.44 µM (≈ 10 µg/mL).

Turning to `CC[C@H](C)[C@H](NC(=O)[C@H](CC(C)C)NC(=O)[C@H](CCC(=O)O)NC(=O)[C@H](CCC(N)=O)NC(=O)[C@H](CC(C)C)NC(=O)[C@@H](NC(=O)[C@H](CCCCN)NC(=O)[C@H](CCC(N)=O)NC(=O)[C@@H](NC(=O)[C@@H](NC(=O)[C@H](CCC(=O)O)NC(=O)CNC(=O)[C@H](CO)NC(=O)[C@@H](NC(=O)[C@H](CCC(N)=O)NC(=O)[C@H](CCCCN)NC(=O)CNC(=O)[C@H](CCC(N)=O)NC(=O)[C@H](CC(C)C)NC(=O)[C@@H](N)CCC(N)=O)C(C)C)C(C)C)C(C)C)C(C)C)C(=O)N[C@@H](CCC(N)=O)C(=O)N[C@@H](CO)C(=O)N[C@H](C(=O)N[C@@H](C)C(=O)N[C@@H](CCCCN)C(=O)N1CCC[C@H]1C(N)=O)C(C)C` [QLQGKQVSGEVVQKVLQELIQSVAKP], the MIC in test [23] is 6.22 µM (≈ 17.6 µg/mL); in [24] it was 6.22 µM (≈ 17.6 µg/mL); in test [25], 4.23 µM (≈ 12 µg/mL); in test [26] it was 6.22 µM (≈ 17.6 µg/mL); in test [27], 6.22 µM (≈ 17.6 µg/mL); in test [28], 6.22 µM (≈ 17.6 µg/mL). The MIC in [29] came out at 4.23 µM (≈ 12 µg/mL); in test [30], 6.22 µM (≈ 17.6 µg/mL); in test [31] it was 4.23 µM (≈ 12 µg/mL); in [32], 6.22 µM (≈ 17.6 µg/mL); in test [33] it was 4.23 µM (≈ 12 µg/mL).

As to `CC[C@H](C)[C@H](N)C(=O)N[C@@H](CC(C)C)C(=O)NCC(=O)N[C@@H](C)C(=O)N[C@H](C(=O)N[C@@H](CC(C)C)C(=O)N1CCC[C@H]1C(=O)N[C@@H](CC(C)C)C(=O)N[C@H](C(=O)N[C@@H](CO)C(=O)NCC(=O)N[C@@H](CC(C)C)C(=O)N[C@@H](CC(C)C)C(=O)N[C@@H](CO)C(=O)N[C@@H](CC(N)=O)C(=O)N[C@@H](CCCCN)C(=O)N[C@@H](CC(C)C)C(N)=O)C(C)C)[C@@H](C)CC` [ILGAILPLVSGLLSNKL], the MIC is at least 256 µM in test [34]; at least 128 µM in [35]; at least 128 µM in test [36]; at least 64 µM in test [37]; above 256 µM in [38]; at least 128 µM in test [39]. In addition, the figures for the MIC in test [40], in [41] and in test [42] were at least 256 µM, 128 µM (≈ 220 µg/mL) and above 256 µM, respectively.
